Assay results taken from publication PMC7504215, “Copper(II) Complexes with Mixed Heterocycle Ligands as Promising Antibacterial and Antitumor Species” (Molecules, 2020).
Like-named read-outs stand apart in the source and are kept apart here.

How the values were obtained:
E. coli 25922 = test: MBEC assay, micro-titer method (biofilm); format: cell-based, Escherichia coli
Procedure: (§1) The antibacterial assays were performed on Gram-negative (Escherichia coli ATCC 25922, E. coli 5, Pseudomonas aeruginosa ATCC 27853, P. aeruginosa ATCC 9027) and Gram-positive (Staphylococcus aureus ATCC 25923, S. aureus ATCC 6538, MRSA (Meticillin-resistant S. aureus) 388, ATCC, American Type Culture Collection) bacterial strains. Microbial suspensions (1.5 × 10^8 CFU/mL; colony forming units (CFU)) corresponding to 0.5 McFarland density obtained from 15 to 18-h bacterial cultures developed on solid media were used. The antimicrobial activity was tested on Mueller–Hinton agar medium.
(§2) The assessment of the complexes’ influence on the microbial ability to colonize an inert substratum with the establishment of the minimal biofilm eradication concentration (MBEC) was performed by the micro-titer method, following previously described protocols. The absorbance at 490 nm was measured with an Apollo LB 911ELISA (Berthold Technologies GmbH & Co. KG, Waltham, MA, USA) reader. All experiments were performed in triplicates.

E. coli 5 ESBL = test: MBEC assay, micro-titer method (biofilm); format: cell-based, Escherichia coli
Procedure: as §1, §2

S. aureus 6538 [1] = test: MIC assay, liquid medium microdilution (planktonic growth); format: cell-based, Staphylococcus aureus; details: S. aureus 6538, 24 h at 37 °C
Procedure: as §1
(§3) The quantitative assay of the antimicrobial activity was performed by the liquid medium microdilution method, in 96-well multi-well plates, to establish the minimal inhibitory concentration (MIC). For this purpose, serial two-fold dilutions of the compounds ranging between 1.000 and 1.95 μg/mL were performed in a 200 μL volume of broth and each well was seeded with 50 μL microbial inoculums. Sterility control (wells containing only culture medium) and culture controls (wells containing culture medium seeded with the microbial inoculum) were used. The influence of the DMSO solvent was also quantified in a series of wells containing DMSO, diluted accordingly with the dilution scheme used for the complexes. The plates were incubated for 24 h at 37 °C, and MIC values were considered as the lowest concentration of the tested compound that inhibited the visible growth of the microbial overnight cultures.

MRSA [2] = test: as above; format: cell-based, Staphylococcus aureus; details: 24 h at 37 °C
Procedure: as §1, §3

S. aureus 25923 = test: as above; format: cell-based, Staphylococcus aureus; details: S. aureus 25923, 24 h at 37 °C
Procedure: as §1, §3

[3] = tested on: Saccharomyces cerevisiae (wild-type, WT) laboratory strain BY4741; test: Yeast cell proliferation (toxicity); format: cell-based; details: for Effect on cell proliferation: 0.1–0.2 mM final concentration in liquid YPD, compared to cells grown without compounds; for IC50: S. cerevisiae BY4741 (WT), liquid YPD
Procedure: The Saccharomyces cerevisiae laboratory strain BY4741 (MATa; his3Δ1; leu2Δ0; met15Δ0; ura3Δ0), considered wild type (WT), and the isogenic strains sod1Δ and sod2Δ lacking the genes SOD1 (encoding Cu/Zn-superoxide dismutase) and SOD2 (encoding Mn-superoxide dismutase) were purchased from EUROSCARF (Frankfurt, Germany). Cells were maintained and manipulated and grown in YPD medium (1% w/v yeast extract, 2% w/v peptone, 2% w/v glucose; 2% w/v agar was added for solid media). Complexes were added to autoclaved media from DMSO sterile stocks (10 mM). To determine the effect of compounds on yeast growth, a fresh overnight pre-culture was 10^3-fold diluted in YPD and incubated (200 rpm, 30 °C) until the culture reached a density of 5 × 10^5 cells/mL. At this point, the compounds were added to the desired concentrations, and cell proliferation was monitored at 660 nm in a 96-well multi-scanner autoreader plate reader equipped with a thermostat and shaker (Varioskan Thermo Fischer Scientific, Vantaa, Finland). The uptake of compounds by yeast cells was determined indirectly by measuring the increase of the total cellular copper content normalized to the total cellular protein determined by Bradford assay. All determinations were done on three biological replicates. The IC50 was calculated by nonlinear regression analysis using the Graphpad Prism software.

[4] = tested on: B16 (melanoma) tumor cells; test: MTT cell viability assay; format: cell-based, Mouse
Procedure: The cytotoxicity of ligand and copper(II) complexes was tested on normal BJ cell as well as on B16 (melanoma) tumor cells, which were grown for 48 h in culture medium containing the tested complexes in 0–25 μg/mL concentration range.
Human fibroblast cells (BJ-ATCC CRL-2522, Manassas, VA, USA) were grown in minimal essential medium (MEM) supplemented with 2 mM L-Glutamine, 10% fetal calf serum (FCS), 100 units/mL of penicillin and 100 µg/mL of streptomycin at 37 °C in a humidified incubator under an atmosphere containing 5% CO2. Mouse melanoma cells (B16-ATCC CRL-6475, Manassas, VA, USA) were grown in DMEM (Dulbecco’s Modified Eagle Medium) supplemented with similar reagents as MEM. All cell cultivation media and reagents were purchased from Biochrom AG (Berlin, Germany) and Sigma-Aldrich (Darmstadt, Germany).
Cell viability was evaluated using 3-(4,5-dimethylthiazol-2-yl)-2,5-diphenyltetrazolium bromide (MTT) assay, as described previously. First, the cells were seeded in 96-well plates (20,000 cells/well) and cultured for 24 h in medium. After overnight incubation, the medium was changed and the investigated sample in concentration varying from […] was added for 24 h. The negative control was represented by cells cultivated in medium without the investigated compounds. Following incubation, the medium was changed and the MTT solution was added to each well to a final concentration of 1 mg/mL and incubated for additional 4 h, at 37 °C. Finally, the medium was collected and DMSO was used to dissolve the insoluble formazan product. The absorbance of the samples was recorded at 570 nm using a plate reader Mithras 940 (Berthold). The data were corrected for the background and the percentage of viable cells was obtained using the equation:Cell viability = [(A570 of treated cells)/(A570 of untreated cells)] × 100%
The half-maximal inhibitory concentration (IC50) was determined by fitting the data with a logistical sigmoidal equation using the software Origin 8.1 from Microcal Inc. (Los Angeles, CA, USA).

S. aureus 6538 [5] = test: MBEC assay, micro-titer method (biofilm); format: cell-based, Staphylococcus aureus
Procedure: as §1, §2

MRSA [6] = test: MBEC assay, micro-titer method (biofilm); format: cell-based, Staphylococcus aureus
Procedure: as §1, §2

[7] = B16 cells, 48 h, MTT, read-out: IC50 B16 Cells 48 h

`Cc1cc(-c2ccccc2)nc2ncnn12.[Cu+2].[O-][Cl+3]([O-])([O-])[O-].[O-][Cl+3]([O-])([O-])[O-].c1ccc(-c2ccccn2)nc1.c1ccc(-c2ccccn2)nc1` [(1), [Cu(bpy)2(pmtp)](ClO4)2] showed an MBEC value (E. coli 25922) of 0.40 mM, an MBEC value (E. coli 5 ESBL) of 0.40 mM and an MIC (S. aureus 6538 [1]) of 400 µM. For the same compound, the MIC (MRSA [2]) was 400 µM, the MIC (S. aureus 25923) was 400 µM and the “Effect on cell proliferation” value [3] was “did not significantly affect cell proliferation”. The IC50 [3] was 480 ± 160 µM, the “Effect on viability of B16 cells” value ([4]; 24 h of treatment, 0–25 μg/mL) was “did not affect the viability of B16 cells” and the “IC50 B16 Cells 48 h” value ([4]; B16 cells, 48 h, MTT) was 15.46 µg/mL. For the same compound, the IC50 [4, 7] was 20 µM, the MBEC value (S. aureus 6538 [5]) was 0.10 mM and the MBEC value (MRSA [6]) was 0.40 mM.

In the case of `Cc1cc(-c2ccccc2)nc2ncnn12.[Cu+2].[O-][Cl+3]([O-])([O-])[O-].[O-][Cl+3]([O-])([O-])[O-].c1cnc2c(c1)ccc1cccnc12.c1cnc2c(c1)ccc1cccnc12` [(2), [Cu(phen)2(pmtp)](ClO4)2], the MBEC value (E. coli 25922) is reported as 0.02 mM, the MBEC value (E. coli 5 ESBL) is reported as 0.05 mM and the MIC (S. aureus 6538 [1]) is reported as 90 µM. For the same compound, the MIC (MRSA [2]) was 50 µM, the MIC (S. aureus 25923) was 10 µM and the “Effect on cell proliferation” value [3] was “did not significantly affect cell proliferation”. For the same compound, the IC50 [3] was 580 ± 210 µM, the “IC50 B16 Cells 24 h” value ([4]; B16 cells, 24 h, MTT) was 6.25 µg/mL and the IC50 ([4]; B16 cells, 24 h, MTT, read-out: IC50 B16 Cells 24 h) was 7.5 µM. The “IC50 B16 Cells 48 h” value ([4]; B16 cells, 48 h, MTT) was 3.72 µg/mL, the IC50 [4, 7] was 4 µM and the MBEC value (S. aureus 6538 [5]) was 0.02 mM. It also gave an MBEC value (MRSA [6]) of 0.05 mM.
